Patent US20220381787A1, “NOVEL LOX-1 ANTIBODY COMPOSITIONS, LOX1 NEUTRALIZATION ASSAY AND METHODS OF TREATMENT USING SAME” (The Wistar Institute of Anatomy and Biology, priority 2019, published 2022)

Tested on: PMN isolated from a healthy donor
Assay: FACS of untreated or Thapsigargin-treated PMN for LOX-1 expression
Type: cell-based, human
Details: 1 μM Thapsigargin (THG)
Experimental: FIGS. 10A and 10B show FACS analyses of PMN cells showing the expression of LOX-1. Representative histograms of untreated or Thapsigargin (THG)-treated cells were stained after incubating with anti-LOX-1 antibody (Ab) are shown. Percentage of LOX-1^+ PMN and expression of LOX-1 in PMN isolated from a healthy donor and treated with 1 μM […] and 1 mM Dithiothreitol (DTT). Representative LOX-1 expression level with anti-LOX-1 and commercial Abs. Representative LOX-1 expression level with DMAb derived Abs. Summary of data derived from FACS analysis of LOX-1 level is expressed as the % of LOX-1^+/CD15^+.

Compound: C/C=C(/C)C(=O)O[C@H]1C(C)=C2[C@H]([C@@H]1OC(=O)CCCCCCC)[C@@](C)(OC(C)=O)C[C@H](OC(=O)CCC)[C@@]1(O)[C@H]2OC(=O)[C@@]1(C)O [THG, Thapsigargin]
- percentage of LOX-1+ PMN (% of LOX-1+/CD15+): Higher percentages of PMN expressed LOX-1
